Data reported in patent US20150342847A1, “NOVEL DERIVATIVES OF SINAPINIC ACID AND THE COSMETIC OR PHARMACEUTICAL USES THEREOF” (BASF Beauty Care Solutions France SAS, priority 2012, published 2015).

Tests used:
[1] = system: melanocytes of murine line B16; assay: Inhibition of melanin production in B16 melanocytes stimulated with an α-MSH derivative; format: cell-based; conditions: Mus musculus, B16 cells, 72 hours, read-out: % inhibition of melanin +/− standard deviation
Protocol: Determination of the percentage inhibition of melanin production by the hydroxytyrosol dihydrosinapate of the invention of formula (IIa) or the ferulic acid derivative of the prior art, by quantitative analysis of the total melanin synthesized by melanocytes of murine line B16 following application of the compound under test.
Melanocytes (B16 cells) are cultured for 24 hours in a 96-well plate in an appropriate medium. […] After 72 hours of incubation, the culture medium is withdrawn, and total melanin is quantified by measuring the absorbance at 405 nm against a standard range of synthetic melanin from 0.78 to 100 μg/mL.
The results are expressed as percentage inhibition of melanin production relative to the negative control, and are presented in Table 1.
The inhibitory activity on melanin production of the product tested is calculated as a percentage according to the following formula:
% inhibition=[(mean stimulated control−mean basal control)−(sample value−mean basal control)]/(mean stimulated control−mean basal control)×100
where: • Mean stimulated control: mean of the values obtained with a medium supplemented with an alpha-MSH derivative • Sample value: value obtained with the compound under test • Mean basal control: Mean of the values obtained with a medium not supplemented with an alpha-MSH derivative

[2] = TBARS test, lipid peroxidation of UVB-irradiated liposomal suspension; conditions: UVB 2 hours
Protocol: Study of the radical scavenger activity of the hydroxytyrosol dihydrosinapate of the invention of formula (IIa) and of the prior-art ferulic acid derivative by the TBARS test.
Two identical 96-well plates are produced according to a defined plate plan. 50 μL of a sample mixture prepared by diluting a solution of a test compound or of a negative control (vehicle medium without test compound) or of a positive control (D-L-alpha-tocopherol) to 1/10 in a liposomal suspension are distributed per well, in quadruplicate. One of the two plates is irradiated with UVB for 2 hours. The other plate, serving as a control, is incubated in the absence of light and at ambient temperature for 2 hours.
At the end of irradiation, an amount of 100 μL of 20% trichloroacetic acid solution was added per well, followed by an amount of 34 μL of 1% thiobarbituric acid solution. The plates are then incubated at 105° C. for 25 minutes.
The contents of each well are centrifuged at 5700 rpm for 5 minutes, and then an amount of 100 μL of supernatant was deposited in new plates, according to the same plan, and the absorbance was read off at 530 nm.
The positive experimental control was D-L-alpha-tocopherol, at a concentration of 1%, for which a percentage inhibition of 80% was obtained.

[3] = system: melanocytes; assay: Cytotoxicity, MTT cell viability on melanocytes; format: cell-based; conditions: for Percentage cell viability, Mean: MTT
Protocol: Study of cell viability following application of the hydroxytyrosol dihydrosinapate of the invention of formula (IIa) to keratinocytes or melanocytes.
The cells (keratinocytes or melanocytes) were cultured in a 96-well plate at 37° C. under 5% CO2 in an appropriate medium until confluence. The medium was withdrawn and then an amount of 200 μL of a 0.5 mg/mL MTT solution was added. The plates were then incubated at 37° C. for 3 hours, after which the MTT solution was withdrawn from each well and replaced with DMSO. The plates were agitated for 15 minutes, and the optical density was measured at 550 nm.
The negative cytotoxicity control is PBS. The positive cytotoxicity control is 0.25% SDS. 0.1% DMSO was used as control.

## COc1cc(CCC(=O)OCCc2ccc(O)c(O)c2)cc(OC)c1O [Hydroxytyrosol dihydrosinapate (IIa), hydroxytyrosol dihydrosinapate]
[1]; 10 μM
  inhibition at 10 µM: 75%
[1]; 30 μM
  inhibition at 30 µM: 106%
[1]; 50 μM
  inhibition at 50 µM: 115%
[2]; 1 μM after dilution to 1/10th in the liposomal suspension
  % inhibition of lipid peroxidation: −10.58%
[2]; 5 μM after dilution to 1/10th in the liposomal suspension
  % inhibition of lipid peroxidation: 8.21%
[2]; 30 μM after dilution to 1/10th in the liposomal suspension
  % inhibition of lipid peroxidation: 7.14%
[2]; 50 μM after dilution to 1/10th in the liposomal suspension
  % inhibition of lipid peroxidation: 19.12%
[2]; 100 μM after dilution to 1/10th in the liposomal suspension
  % inhibition of lipid peroxidation: 41.95%
[2]; 1000 μM after dilution to 1/10th in the liposomal suspension
  % inhibition of lipid peroxidation: 77.04%
[3]; 1 μM
  Percentage cell viability, Mean: 109.67%
[3]; 10 μM
  Percentage cell viability, Mean: 107.53%
[3]; 100 μM
  Percentage cell viability, Mean: 111.30%
[3]; 10^−6, 10^−5 and 10^−4 M, tolerated threshold 75% viability
  cytotoxicity (in words): not cytotoxic
